Results as given in US20100234593A1, “Imidazo[4,5-B]Pyridine-7-Carboxamides 704” (ASTRAZENECA AB, priority 2007, published 2010).
Counter-ions that a name gives are not always drawn.

Target: T1, recombinant human GSK3β (Homo sapiens, UniProt P49841)
T1 construct: purchased Dundee University, UK
Experiment: GSK3β Scintillation Proximity Assay (ATP competition)
Assay type: biochemical
Settings: SPA, 1 μM ATP, 1 μM biotinylated peptide substrate; Ki calculated with Km of ATP 20 μM
Description: Determination of ATP Competition in Scintillation Proximit), GSK3β Assay.
GSK3β Scintillation Proximity Assay.
The competition experiments were carried out in duplicate with 10 different concentrations of the inhibitors in clear-bottom microtiter plates (Wallac, Finland). A biotinylated peptide substrate, Biotin-Ala-Ala-Glu-Glu-Leu-Asp-Ser-Arg-Ala-Gly-Ser(PO3H2)-Pro-Gln-Leu (AstraZeneca, Lund), was added at a final concentration of 1 μM in an assay buffer containing 1 mU recombinant human GSK3β (Dundee University, UK), 12 mM morpholinepropanesulfonic acid (MOPS), pH 7.0, 0.3 mM EDTA, 0.01% β-mercaptorethanol, 0.004% Brij 35 (a […] detergent), 0.5% glycerol and 0.5 μg BSA/25 μl. The reaction was initiated by the addition of 0.04 μCi [γ-^33P]ATP (Amersham, UK) and unlabelled ATP at a final concentration of 1 μM and assay volume of 25 μl. After incubation for 20 minutes at room temperature, each reaction was terminated by the addition of 25 μl stop solution containing 5 mM EDTA, 50 μM ATP, 0.1% Triton X-100 and 0.25 mg streptavidin coated Scintillation Proximity Assay (SPA) beads (Amersham, UK). After 6 hours the radioactivity was determined in a liquid scintillation counter (1450 MicroBeta Trilux, Wallac). The inhibition curves were analysed by non-linear regression using GraphPad Prism, USA. The Km value of ATP for GSK3β, used to calculate the inhibition constants (Ki) of the various compounds, was 20 μM.

T1 sequence (P49841 whole entry): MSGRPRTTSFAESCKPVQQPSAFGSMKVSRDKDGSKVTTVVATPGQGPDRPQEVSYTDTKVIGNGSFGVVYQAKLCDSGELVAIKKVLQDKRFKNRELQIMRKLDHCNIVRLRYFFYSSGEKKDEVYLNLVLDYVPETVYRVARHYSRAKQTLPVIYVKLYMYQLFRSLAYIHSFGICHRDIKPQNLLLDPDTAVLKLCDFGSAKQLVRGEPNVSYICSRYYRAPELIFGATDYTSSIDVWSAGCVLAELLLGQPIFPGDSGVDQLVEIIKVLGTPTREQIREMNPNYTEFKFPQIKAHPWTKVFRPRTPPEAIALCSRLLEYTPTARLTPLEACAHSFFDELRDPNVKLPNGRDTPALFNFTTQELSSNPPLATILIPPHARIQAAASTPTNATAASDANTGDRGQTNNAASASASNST

Structure (SMILES) | Ki
COCCCNC(=O)c1c(Br)cnc2[nH]c(-c3ccc(CN4CCOCC4)cc3)nc12 [Example 13, 6-Bromo-S-(3-methoxypropyl)-2-[4-(morpholin-4-ylmethyl)phenyl]-3H-imidazo[4,5-b]pyridine-7-carboxamide] | 390 nM
COCCCNC(=O)c1c(F)cnc2[nH]c(-c3ccc(CN4CCOCC4)cc3)nc12 [Example 21, 6-Fluoro-N-(3-methoxypropyl)-2-[4-(morpholin-4-ylmethyl)phenyl]-3H-imidazo[4,5-b]pyridine-7-carboxamide hydrochloride] | 779 nM
COCCCNC(=O)c1c(Cl)cnc2[nH]c(-c3ccc(CN4CCOCC4)cc3)nc12 [Example 14, 6-Chloro-N-(3-methoxypropyl)-2-[4-(morpholin-4-ylmethyl)phenyl]-3H-imidazo[4,5-b]pyridine-7-carboxamide] | 1400 nM
